Test: Inhibition of MCP1-induced CCR2-mediated chemotaxis in human THP-1 cells

- IC50: 5.1 nM
SMILES: CC(C)N1CCN[C@@H](C(=O)N2CCN(C(=O)Nc3ccc(Cl)c(Cl)c3)CC2)C1

From BindingDB's records for doi:10.1016/j.bmcl.2012.04.118 (Astrazeneca, 2012)
